{"source": "patent US20070128669A1", "about": "“Serum-free expansion of cells in culture” (Institute for Chemical Genomics, priority 2005, published 2007)", "key": {"[1]": {"test_system": "Stat3 signaling pathway", "assay": "pSTAT3-TA-Luc luciferase reporter assay in ESCs", "format": "cell-based, mouse", "settings": "24 hours exposure", "protocol": "Transfection and Luciferase assay. ESCs were cultured in 96-well cell culture dishes coated with a 0.1% aqueous gelatin solution and transfected with 0.2 μg/well of pSTAT3-TA-Luc (CLONTECH), using Lipofectamine 2000 (Invitrogen). After 6 hours, cells were washed and exposed to either IQ-1 at the indicated doses, or LIF, for 24 hours. Transfection efficiencies were normalized with pRL-null luciferase plasmid. Luciferase assays were performed with the DUAL-Luciferase Reporter Assay System (Promega)."}, "[2]": {"test_system": "p300 Ser89 phosphorylation", "assay": "Immunoblot of p300 and phospho-serine89-p300 in P19 cells", "format": "cell-based", "settings": "Wnt3a stimulated P19 cells, 10 μM, 24 hours", "protocol": "Detection of CBP, p300, and phospho-serine89-p300 in P19 cells. P19 cells exposed to either Wnt3A or vehicle control, after which IQ-1 was added to a final concentration of 10 μM. Control DMSO was 0.025%. Cells were incubated for 24 hours. At the end of this incubation period, cells were washed, lysed and subjected to SDS-PAGE. CBP and p300 were detected using the rabbit polyclonal antibody (A-22)(1:5000); and (C-20)(1:5000) (Santa Cruz), respectively. Phospho-serine89-p300 was detected using custom antisera at a dilution of 1:100."}, "[3]": {"test_system": "zebrafish embryos", "assay": "Zebrafish embryo development (convergent extension)", "format": "in vivo, zebrafish (danio rerio)", "settings": "1 μM, 1-cell stage embryos, 24 h", "protocol": "Zebrafish experiments. Wild-type (AB) zebrafish strain at 1-cell stage were treated with IQ-1 at a final concentration of 1 μM in embryo medium for 24 h. Control zebrafish embryos were incubated at an equivalent concentration of DMSO. At the end of this 24 h treatment, embryos were manually dechorionated and imaged. Zebrafish embryos were maintained at 28° C. Results shown are representative of those obtained from at least 10 embryos for each group, from 2 independent experiments."}, "[4]": {"test_system": "ESCs", "assay": "Embryoid body formation and differentiation of long term cultured ESCs", "format": "cell-based, mouse", "protocol": "FIG. 5. […] FIG. 5A, long term cultured ESCs were induced to form embryoid bodies in suspension cultures for 3 days. ESCs cultured in media in the presence of Wnt3A and IQ-1 (4 μg/ml) for 48 days were able to form embryoid bodies (Left). ESCs lose their ability to form embryoid bodies after 3 days of culturing in the absence IQ-1 (Right). FIG. 5B, IQ-1 treated ESCs derived embryoid bodies were cultured (adherence culture) for 7-14 days to induce further differentiation. […] FIG. 5C, model depicting the proposed mechanism of action of IQ-1.\nImmunocytochemistry and Antibodies. Cells were fixed for 20 min with 4% paraformaldehyde in PBS. Immunostaining was carried out using standard protocols. Primary antibodies were used at the following dilutions: anti α-fetoprotein mouse monoclonal (R&D systems, 10 ug/ml), anti-Actin, Smooth muscle Ab-1 mouse monoclonal (LAB VISION, 1:1), anti-GATA4 mouse monoclonal (SANTA CRUZ, 1:100), anti-MAP (microtubule associated protein)2 mouse monoclonal (Chemicon, 1:200), βIII-tubulin mouse monoclonal (Chemicon, 1:200), anti-Oligodendrocyte mouse monoclonal (Chemicon, 1:1,000). Secondary antibodies were Alexa Fluor 488 or 594 goat anti-mouse IgG (H+L)(Invitrogen, 1:200). Cells were imaged using an Olympus IX 70 microscope with ×40-200 magnification."}, "[5]": {"test_system": "Nanog gene expression in ESCs", "assay": "Real-time RT-PCR for Nanog in feeder-free ESCs", "format": "cell-based, mouse", "protocol": "FIG. 2. […] Real-time RT-PCR for Nanog was performed. The control expression level of Nanog at day 0 was set at 1. FIG. 2B, removal of IQ-1 decreases Nanog gene expression in ESCs. IQ-1 was removed from ESCs which had been cultured under feeder-free system and in the presence of IQ-1 (4 μg/ml), for three days. At the end of this period, mRNA was isolated and real-time RT-PCR was performed to assay for Nanog gene expression. FIG. 2C, effects of IQ-1 were not mediated through Stat3 signaling pathway as judged by luciferase reporter assay. Feeder-free ESCs, transfected with the pSTAT3-TA-Luc reporter, were exposed to IQ-1 at the indicated doses, or LIF. All error bars represent mean±SD.\nReal-time RT-PCR. Total RNA was isolated and reverse-transcribed using SuperScript III (Invitrogen). Real-time RT-PCR (Sybr Green; BioRad) was performed using with the gene-specific primers: […]"}, "[6]": {"test_system": "Mouse D3 ESCs", "assay": "Long term expansion of ESCs without MEF feeders or LIF", "format": "cell-based", "protocol": "FIG. 1. […] FIG. 1A, Structure of IQ-1. FIG. 1B, IQ-1 dose dependently maintains alkaline phosphatase activity. FIG. 1C, IQ-1, dose dependently, maintains SSEA-1 expression. SSEA-1 expression was analyzed 7 days after addition of IQ-1. FIG. 1D, IQ-1 enabled ESCs to proliferate in the undifferentiated state for at least 65 days, without MEF feeders or LIF. ESCs, in media supplemented with 4 μg/ml IQ-1, were passaged 2-3 times every week at 1×10^5-1×10^6 cells per 6 cm dish and counted. All error bars represent mean±SD.\nCell culture. ESCs, D3ES (ATCC CRL-1934) were maintained on Mitomycin C treated MEFs in mouse ESC medium containing DMEM (Invitrogen) supplemented with 15% FBS (Invitrogen), 0.1 mM MEM nonessential amino acids (Invitrogen), 0.1 mM 2-mercaptoethanol (Sigma), 2 mM L-glutamine (Invitrogen) and 1,000 U/ml LIF (CHEMICON). To remove MEFs, cells were collected by trypsinization and plated on gelatin-coated culture dishes for 20 min. Non-adherent cells consisting mainly of ESCs were replated on gelatin-coated culture dishes again. Non-adherent cells were used for further experiments. P19 cells were cultured according to conditions recommended by the ATCC. Cells were incubated at 37° C. in a 5% CO2 incubator. Purified Wnt3a was purchased (R&D Systems).\nIQ-1 allowed for long term expansion of ESCs in culture without MEFs and without the addition of exogenous LIF. […]"}}}
{"compound": "CC(=O)c1ccc(NN=C(C(N)=O)C2=NC(C)(C)Cc3ccccc32)cc1", "note": "[IQ-1]", "values": [{"measurement": "Stat3/luciferase expression", "setting": "[1]", "value": "did not affect Stat3/luciferase expression"}, {"measurement": "phosphorylation level of p300 Ser89", "setting": "[2]", "value": "dramatic decrease"}, {"measurement": "total amount of p300", "setting": "[2]", "value": "not affected"}, {"measurement": "zebrafish embryo development", "setting": "[3]", "value": "significant developmental defects"}, {"measurement": "pluripotency: embryoid body formation and differentiation to three germ layers", "setting": "[4]; IQ-1 (4 μg/ml) and Wnt3a, after day 48", "value": "maintained the pluripotency of ESCs"}, {"measurement": "time to loss of pluripotency after removal of IQ-1", "setting": "[4]; removal of IQ-1", "value": "≤ 3", "unit": "days"}, {"measurement": "Nanog level after removal of IQ-1 from culture", "setting": "[5]; IQ-1 (4 μg/ml) removed for three days", "value": "precipitous drop in Nanog level"}, {"measurement": "Nanog expression", "setting": "[5]; feeder-free ESCs, IQ-1 4 μg/ml or LIF 1000 U/ml, 21 hrs", "value": "significantly increased and maintained Nanog expression"}, {"measurement": "time ESCs proliferate in the undifferentiated state", "setting": "[6]; 4 μg/ml IQ-1, without MEF feeders or LIF", "value": "at least 65 days"}, {"measurement": "ESC proliferation rate", "setting": "[6]; 15% FCS plus 4 μg/ml IQ-1, 65 days, without MEFs or LIF", "value": "~2 log increase every ten days"}]}
